Measured values reported in US20240108577A1, “CONTROLLED RELEASE OF […] A SOURCE MATERIAL” (Syqe Medical Ltd., priority 2022, published 2024).

Columns and labels:
[1] = Pre-packaging refrigeration stability of ground MC powder (5° C.±2° C., up to 12% RH), LOD and U-HPLC of phytocannabinoids; format: physicochemical; conditions: for change in phytocannabinoid concentration during storage: up to 3 months, one-way ANOVA
Method: In the described experiment, Bedrocan strain MC powder was stored at 5° C.±2° C. with up to 12% relative humidity (RH) in a polypropylene container, sealed in an aluminum foil pouch (Oliver-Tolas Healthcare Packaging B.V.; Venray, Netherlands). In order to assess its stability during the handling and hold time, samples were taken from three separate growing batches and assayed at baseline and at 1, 2 and 3 months post grinding. Each sample was assayed for loss on drying (LOD), and of the concentrations of the major phytocannabinoids (CBDA, CBD, CBGA, CBN, THCA and THC).
(§1) Analysis of cannabis inflorescences for the main phytocannabinoids (CBDA, CBD, CBGA, CBN, THCA and THC) was performed as follows: 100 mg of ground Cannabis inflorescences were weighed in duplicate from one container and extracted with 25 mL methanol then sonicated for 40 min and centrifuged at 3000 rpm for 5 min. All samples were filtered through a 0.22 μm PP filter vail prior to analysis. The dilution and quantitation were preformed corresponding to calibration curves. The main six phytocannabinoids were analyzed by ultra-high-performance liquid chromatography (UHPLC: […]) system with a refrigerated auto-sampler, thermostatic column oven and ultraviolet detector, Waters ACQUITY UPLC H-Class. Chromatographic separation was achieved using UPLC column Waters Acquity C18, 1.7 μm particles, 2.1×150 mm maintained at 30° C. The phytocannabinoids were separated using a gradient elution with mobile phases of 0.1% (v/v) formic acid in double-distilled water (phase A) and acetonitrile (phase B), respectively. A constant flow rate of 0.4 mL/min was employed throughout. The gradient profile varied from 70% to 100% B in 10.5 min, held for 0.5 min in these conditions and then returned to the initial conditions.
(§2) For THC and CBD, the concentrations of the acid and its neutral counterpart were summed and reported as the total content. For example, the concentration of total THC […] was calculated as: Total THC=THCA*0.877+THC, with 0.877 being the molar ratio between the two compounds that corrects for a change in the mass of THCA as a result of the loss of CO2 (decarboxylation). This is shown in FIG. 7A: “U-HPLC analysis of the Bedrocan cultivar”.
(§3) R software (V.1.1.463) with tidyverse (17) package was used to analyze changes in outcome measures by one way ANOVA test, using Fisher's exact test analysis. All analyses were followed by a Tukey post-hoc test for multiple comparison. Data are presented as Mean±95% confidence interval (CI). Differences were considered significant at the p<0.05 level.

[2] = Stability of Syqe cartridges stored at 30° C.±2° C. (65% RH±5% RH), LOD and U-HPLC; format: physicochemical; conditions: for amounts detected at all time points: BL to 6 months; for change in phytocannabinoid amount during storage: 65% RH, up to 6 months, one-way ANOVA
Method: Additionally, to assess the effects of a warmer temperature on MC, Syqe cartridges were stored post-production at an elevated temperature and humidity of 30° C.±2° C. (65% RH±5% RH). Three different growing batches were analyzed at baseline and at 1, 2, 4 and 6 months of storage.
as §1, §2, §3

[3] = Long-term stability of ground cannabis packaged in Syqe cartridges at 25° C.±2° C. (RH 60%±5%), LOD and U-HPLC; format: physicochemical; conditions: for change in phytocannabinoid amount during storage: RH 60%, up to 24 months, one-way ANOVA
Method: (§4) In some embodiments, once cartridges are produced, they are stored, distributed and used at RT. In order to assess the shelf life of such cartridges, a long-term stability study was performed, during which cartridges were stored at 25° C.±2° C. (RH 60%±5%) in a calibrated and certified stability chamber (Memmert Constant climate chamber HPP260). 9, 6, 9, 8, 7, 4 and 4 separate growing batches were tested at baseline and after 3, 6, 9, 12, 18 and 24 months, respectively. At each time point samples of the ground inflorescence within the cartridges were analyzed for LOD and for the amount (mg) of each of the major phytocannabinoids (CBDA, CBD, CBGA, CBN, THCA and THC). Of the same batches, THC aerosolized by the Syqe inhaler was analyzed at baseline and at 6, 9, 18 and 24 months.
as §1, §2, §3

[4] = after four years, room temperature (22 C), light or darkness (conditions A and B); cited from earlier work
[5] = Heating of ground cannabis samples to target temperatures 60-150° C.; vaporized THC measured in aerosol, residual terpenes by GC/MS; format: physicochemical; conditions: 135 mg ground cannabis, THC measured in the aerosol, FIG. 6A
Method: The vaporization plots in FIGS. 6A-B show results of an experiment performed by the inventors in which samples of 135 mg of ground cannabis were heated to several target temperatures, including 60° C., 70° C., 80° C., 90° C., 100° C., 110° C., 120° C., 130° C., 140° C. and 150° C. At each of the target temperatures, vaporized THC was measured in the aerosol. At each of the target temperatures, the residual mass of ground cannabis was analyzed using Gas Chromatography-Mass Spectrometry (GC/MS) to determine existence of terpenes, such as: Linalool, Isopulegol, Geraniol, Caryophyllene, […] Humulene<alpha-> and Nerolidol. The total terpenes residue (as remaining in the ground cannabis) is indicated by the dashed line in FIG. 6A. Based on the residual mass of terpenes, the released (vaporized) amount terpenes was calculated, by subtracting the measured residual mass from a respective reference mass.
As can be observed from FIG. 6A, THC (indicated by the continuous line) release started at a target temperature of 130 degrees C., and increased with the rising of the target temperature (up to 150 degrees C.).

[6] = THC dose aerosolized by the Syqe inhaler from cartridges stored at 25° C. up to 24 months; format: physicochemical; conditions: for aerosolized THC dose: inhaler set to 500 μg THC, mean±95% CI
Method: as §4
In some embodiments, the Syqe inhaler is preprogrammed with several distinct heating protocols. In some embodiments, each heating protocol is tailored to heat a VC and deliver an aerosol containing 250, 500, 750 or 1,000 μg or intermediate, larger or smaller amounts of THC to the user. In some embodiments, THC serves as an indicator for dose selection and is optionally delivered with an entourage of phytocannabinoids, terpenes and other molecules of the whole inflorescence that vaporize into the aerosol with it. […] Other dosage amounts are also to be contemplated, any may also serve as optimal dosing, depending on the need. For example, dosage amounts of between 50-5000 μg Δ^9-THC, 200-1000 μg Δ^9-THC, 50-500 μg Δ^9-THC, 1000-5000 μg Δ^9-THC, or intermediate, higher or lower ranges.
In the framework of the two-year stability study, samples were also taken for aerosolization using the Syqe Inhaler. The Syqe Inhaler was set to aerosolize 500 μg THC doses, in accordance with some embodiments. Data is provided only for time points in which three or more batches were tested (namely, BL and 6, 9, 18 and 24 months). […] BL, 6-, 9-, 18-, and 24-months' values were 484.76±31.28n, 486.30±50.56n, 563±22.06 μg, 597.94±16.75 μg and 554.67±36.00 μg, respectively. All aerosolized THC doses were well within the 500 μg±25% range (i.e., 375-625 μg) that apply to pharmaceutical grade inhalers (16).

SMILES | change in phytocannabinoid concentration during storage [1] | amounts detected at all time points [2] | change in phytocannabinoid amount during storage ([3]; 25° C.) | change in phytocannabinoid amount during storage [2] | other results
C=C(C)[C@@H]1CCC(C)=C[C@H]1c1c(O)cc(CCCCC)c(C(=O)O)c1O [CBDA, Cannabidiolic acid] | no significant change | mostly undetected | no significant change |  | pre-storage amount ([3]; before storage): ≤ 0.006 mg/sample
CCCCCc1cc(O)c(C/C=C(\C)CCC=C(C)C)c(O)c1C(=O)O [CBGA, Cannabigerolic acid] | no significant change |  | decreased significantly | decreased significantly | 
CCCCCc1cc(O)c2c(c1)OC(C)(C)c1ccc(C)cc1-2 [CBN, Cannabinol] | no significant change |  | increased significantly | increased significantly | 
CCCCCc1cc2c(c(O)c1C(=O)O)[C@@H]1C=C(C)CC[C@H]1C(C)(C)O2 (relative stereo) [THCA, (−)-Δ^9-trans-tetrahydrocannabinolic acid] | no significant change |  | decreased significantly | decreased significantly | 
C=C(C)[C@@H]1CCC(C)=C[C@H]1c1c(O)cc(CCCCC)cc1O [CBD, Cannabidiol, reference compound] |  | mostly undetected |  |  | concentration detected at all time points ([1]; BL to 3 months): mostly undetected; concentration detected at all time points ([3]; 25° C., BL to 24 months): mostly non-detected
CCCCCc1cc(O)c2c(c1)OC(C)(C)[C@@H]1CCC(C)=C[C@@H]21 [THC, (−)-Δ^9-trans-tetrahydrocannabinol] | no significant change |  | increased | increased significantly | THC degraded [4]: ~100%; target temperature at which THC release started [5]: 130 degrees C.; aerosolized THC dose ([6]; 6 months at 25° C.): 486.30±50.56 n; aerosolized THC dose ([6]; 9 months at 25° C.): 563 ± 22.06 µg; aerosolized THC dose ([6]; 18 months at 25° C.): 597.94 ± 16.75 µg; aerosolized THC dose ([6]; 24 months at 25° C.): 554.67 ± 36.00 µg; range within which all aerosolized THC doses remained ([6]; BL to 24 months at 25° C., 500 μg±25%): 375 to 625 µg; aerosolized THC dose ([6]; BL): 484.76±31.28 n; change in phytocannabinoid amount during storage ([3]; 25° C., listed as Δ^9-THC): increased significantly
